Read-outs that look alike come from different tables or passages of the source.
How the values were obtained:
[1] = in vitro; settings: for % Remaining / Aa/Ai Mean (N = 2) / T1/2: 2.0 μM; for T1/2: 60 min incubation
[2] = biological target: T1, OCT2 (Homo sapiens, UniProt O15244); test: Uptake transporter inhibition assay, OCT2 (metformin)
T1 sequence (O15244 1-555): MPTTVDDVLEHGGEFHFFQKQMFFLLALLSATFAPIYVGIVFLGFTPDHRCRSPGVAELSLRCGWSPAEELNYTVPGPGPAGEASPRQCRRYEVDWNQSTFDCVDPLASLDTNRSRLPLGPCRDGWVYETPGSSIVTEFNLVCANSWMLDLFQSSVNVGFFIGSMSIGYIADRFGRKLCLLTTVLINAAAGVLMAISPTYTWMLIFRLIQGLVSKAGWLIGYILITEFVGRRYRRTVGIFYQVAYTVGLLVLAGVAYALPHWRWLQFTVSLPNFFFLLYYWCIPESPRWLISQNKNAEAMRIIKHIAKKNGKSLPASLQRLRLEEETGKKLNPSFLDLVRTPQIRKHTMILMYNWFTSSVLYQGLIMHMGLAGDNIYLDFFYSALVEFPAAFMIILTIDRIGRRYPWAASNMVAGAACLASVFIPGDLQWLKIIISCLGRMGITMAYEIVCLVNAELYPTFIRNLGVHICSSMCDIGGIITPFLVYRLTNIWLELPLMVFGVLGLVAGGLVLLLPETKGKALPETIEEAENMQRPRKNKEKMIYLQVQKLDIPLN
Experimental: Uptake experiments were performed using HEK293 cells stably expressing the respective uptake transporters. The assays were conducted according to the actual SOLVO uptake transporter assay protocols (PR-ASY-UPT-General Protocol for Uptake Transporter Inhibition Assays).
Cells were cultured at 37° C. in a humidified atmosphere containing 5% CO2 and were plated onto standard 96-well tissue culture plates.
Before the experiment, the medium was removed, and the cells were washed twice with 100 μL of pre-warmed (37° C.) assay buffer listed in Table 15. The cells were pre-incubated at 37° C. for 30 minutes in assay buffer containing the test article at appropriate concentrations (Table 16), appropriate solvents for solvent controls and the reference inhibitor for reference inhibitor wells. After the pre-incubation step solutions were removed. Uptake experiments were performed at 37° C. in 50 μL of assay buffer containing the probe substrate and the test article or solvent and controls.
After the experiment, cells were washed twice with 100 μL of appropriate cold buffer and lysed with 150 μL scintillation cocktail. Radiolabeled probe substrate transport was determined by liquid scintillation counting.
Uptake of the probe substrate in control cells provided background activity values for all data points.

[3] = system: human red blood cells; test: Hemolysis study in human blood; format: cell-based; settings: 60 min, 37° C.; for % RBC lysis (hemolytic potential): test articles 25, 50, 100 μM, amphotericin B 1, 10, 30, 100 μM
Experimental: FIG. 4A. […] Compound I-19 in human blood. Red blood cells were isolated from whole blood and resuspended in PBS. […] (final concentrations 25, 50, and 100 μM) and the mixtures were incubated at 37° C. for 60 min. After the incubation, the samples were centrifuged and the absorbance of 100 μL of supernatant was read at 410 nm. % RBC lysis is expressed relative to 100% lysis control. Values represent mean+SEM of n=3 separate experiments.
FIG. 4B. Hemolytic Potential of Compound I-4 in human blood. Red blood cells were isolated from whole blood and resuspended in PBS. 190 μL of diluted RBC suspension and 10 μL of Compound I-4 solutions were mixed at 0 min. (final concentrations 25, 50, and 100 μM) and the mixtures were incubated at 37° C. for 60 min. After the incubation, the samples were centrifuged and the absorbance of 100 μL of supernatant was read at 410 nm. % RBC lysis is expressed relative to 100% lysis control. Values represent mean+SEM of n=3 separate experiments.
FIG. 4C. Hemolytic Potential of Amphotericin B in human blood (positive assay control). Red blood cells were isolated from whole blood and resuspended in PBS. 190 μL of diluted RBC suspension and 10 μl of amphotericin B solutions were mixed at 0 min. (final concentrations 1, 10, 30, and 100 μM) and the mixtures were incubated at 37° C. for 60 min. After the incubation, the samples were centrifuged and the absorbance of 100 μL of supernatant was read at 410 nm. % RBC lysis is expressed relative to 100% lysis control. Values represent mean+SEM of n=3 separate experiments.
To a clear 96-well V-bottom polystyrene plate, the test articles (10 μL) and the diluted RBCs (190 μL) from human or rat blood were mixed for final concentrations of 25, 50, and 100 μM. The reaction mixture was incubated at 37° C. for 60 min. Following the exposure period, the plates were centrifuged. After centrifugation, 70 μL of supernatant (without disturbing the pellet) was transferred to a clean and clear polystyrene flat bottomed 96-well plate and the absorbance of the sample at a single wavelength was measured using a BioTech Synergy H1 Plate Reader at a wavelength of 410 nm. The positive control for this assay was amphotericin B test at concentrations of 1, 10, 30, and 100 μM.

[4] = 0.14 μM nominal, 0.09 μM NSB corrected, follow-up assay
[5] = 1.24 μM nominal, 0.86 μM NSB corrected, follow-up assay
[6] = 10.00 μM nominal, 6.60 μM NSB corrected
[7] = 11.11 μM nominal, 7.89 μM NSB corrected, follow-up assay
[8] = 33.33 μM nominal, 24.33 μM NSB corrected, follow-up assay
[9] = 100.00 μM nominal, 77.00 μM NSB corrected
[10] = 100.00 μM nominal, 100.00 μM NSB corrected, follow-up assay
[11] = […] nominal, 1.89 μM NSB corrected, follow-up assay
[12] = 0.04 μM nominal, metformin, IC50 determination, Table 124
[13] = 0.12 μM nominal, metformin, IC50 determination, Table 124
[14] = 1.11 μM nominal, metformin, IC50 determination, Table 124
[15] = 3.00 μM nominal, metformin, Table 123
[16] = 10.00 μM nominal, metformin, IC50 determination, Table 124
[17] = 30.00 μM nominal, metformin, IC50 determination, Table 124
[18] = 30.00 μM nominal, metformin, Table 123

Clc1ccc(C2(OCC3OCCO3)c3ccccc3C3=NCCN32)cc1 (stereo not drawn) [Compound I-19]
Compound A formed (Aa/Ai) ([1]; 0 min): 0.60 | % Remaining ([1]; 0 min): 100% | Aa/Ai Mean (N = 2) ([1]; 0 min): 1.62 | % Remaining ([1]; 5 min): 99.1% | Aa/Ai Mean (N = 2) ([1]; 5 min): 1.61 | % Remaining ([1]; 15 min): 98.2% | Aa/Ai Mean (N = 2) ([1]; 15 min): 1.59 | % Remaining ([1]; 30 min): 92.8% | Aa/Ai Mean (N = 2) ([1]; 30 min): 1.50 | % Remaining ([1]; 60 min): 79.6% | Aa/Ai Mean (N = 2) ([1]; 60 min): 1.29 | T1/2 [1]: 178 min | Compound A formed (Aa/Ai) ([1]; 5 min): 0.59 | Compound A formed (Aa/Ai) ([1]; 15 min): 0.57 | Compound A formed (Aa/Ai) ([1]; 30 min): 0.52 | Compound A formed (Aa/Ai) ([1]; 60 min): 0.47 | Relative inhibition [2, 4]: 1% | Relative transporter specific accumulation [2, 4]: 98.93 ± 6.26 % of control | Transporter specific accumulation [2, 4]: 339.33 ± 6.18 cpm | Relative inhibition [2, 5]: 19% | Relative transporter specific accumulation [2, 5]: 81.44 ± 5.58 % of control | Transporter specific accumulation [2, 5]: 279.33 ± 8.96 cpm | Relative inhibition [2, 6]: 69% | Relative transporter specific accumulation [2, 6]: 30.61 ± 3.54 % of control | Transporter specific accumulation [2, 6]: 126.00 ± 14.46 cpm | Relative inhibition [2, 7]: 60% | Relative transporter specific accumulation [2, 7]: 39.65 ± 3.63 % of control | Transporter specific accumulation [2, 7]: 136.00 ± 9.32 cpm | Relative inhibition [2, 8]: 87% | Relative transporter specific accumulation [2, 8]: 12.63 ± 3.35 % of control | Transporter specific accumulation [2, 8]: 43.33 ± 11.20 cpm | Relative inhibition [2, 9]: 98% | Relative transporter specific accumulation [2, 9]: 1.78 ± 0.65 % of control | Transporter specific accumulation [2, 9]: 7.33 ± 2.67 cpm | Relative inhibition [2, 10]: 97% | Relative transporter specific accumulation [2, 10]: 3.16 ± 1.38 % of control | Transporter specific accumulation [2, 10]: 10.83 ± 4.69 cpm | maximum inhibition of OCT2-mediated metformin accumulation ([2]; 2-concentration assay, 100 μM (Compound A 30 μM)): 98% | Maximum % inhibition ([2]; OCT2, HEK293 cells, metformin (10 μM), NIO: no inhibition observed): 97% | Relative inhibition [2, 11]: 29% | Relative transporter specific accumulation [2, 11]: 70.94 ± 7.30 % of control | Transporter specific accumulation [2, 11]: 243.33 ± 20.22 cpm | maximum inhibition of OCT2-mediated metformin accumulation ([2]; follow-up assay): 97% | IC50 ([2]; follow-up assay, NSB-corrected concentrations for Compound I-19): 8.95 µM | EC50 (% RBC lysis) [3]: outside the concentration range tested | % RBC lysis (hemolytic potential) [3]: no detectable hemolysis

OC1(c2ccc(Cl)cc2)c2ccccc2C2=NCCN21 (stereo not drawn) [Compound A, 5-(4-chlorophenyl)-2,3-dihydroimidazo[1,2-b]isoindol-5-ol, reference compound]
IC50 [2]: 3.49 µM | Relative transporter specific accumulation [2, 12]: 109.28 ± 6.45 % of control | Transporter specific accumulation [2, 12]: 259.00 ± 13.36 cpm | Relative transporter specific accumulation [2, 13]: 106.33 ± 3.85 % of control | Transporter specific accumulation [2, 13]: 252.00 ± 5.57 cpm | Relative transporter specific accumulation [2, 14]: 84.39 ± 4.06 % of control | Transporter specific accumulation [2, 14]: 200.00 ± 7.72 cpm | Relative transporter specific accumulation [2, 15]: 51.42 ± 3.71 % of control | Transporter specific accumulation [2, 15]: 150.67 ± 6.96 cpm | Relative transporter specific accumulation [2, 16]: 25.88 ± 3.39 % of control | Transporter specific accumulation [2, 16]: 61.33 ± 7.84 cpm | Relative transporter specific accumulation [2, 17]: 9.42 ± 0.99 % of control | Transporter specific accumulation [2, 17]: 22.33 ± 2.26 cpm | Relative transporter specific accumulation [2, 18]: 13.54 ± 1.38 % of control | Transporter specific accumulation [2, 18]: 39.67 ± 3.38 cpm | inhibition at 10 µM ([2]; human, Maximum % inhibition, OCT2, HEK293 cells, metformin (10 μM), NIO: no inhibition observed): 91% | inhibition at 0.04 μM ([2]; human, Relative Inhibition, 0.04 μM nominal, metformin, IC50 determination, Table 124): -9% | inhibition at 0.12 μM ([2]; human, Relative Inhibition, 0.12 μM nominal, metformin, IC50 determination, Table 124): -6% | inhibition at 1.11 μM ([2]; human, Relative Inhibition, 1.11 μM nominal, metformin, IC50 determination, Table 124): 16% | inhibition at 10 µM ([2]; human, Relative Inhibition, 10.00 μM nominal, metformin, IC50 determination, Table 124): 74% | inhibition at 30 μM ([2]; human, Relative Inhibition, 30.00 μM nominal, metformin, IC50 determination, Table 124): 91% | inhibition at 3 μM ([2]; human, Relative inhibition, 3.00 μM nominal, metformin, Table 123): 49% | inhibition at 30 μM ([2]; human, Relative inhibition, 30.00 μM nominal, metformin, Table 123): 86%

COCCOC1(c2ccc(Cl)cc2)c2ccccc2C2=NCCN21 (stereo not drawn) [Compound I-4]
Compound A formed (Aa/Ai) ([1]; 0 min): 0.57 | % Remaining ([1]; 0 min): 100% | Aa/Ai Mean (N = 2) ([1]; 0 min): 3.25 | % Remaining ([1]; 5 min): 95.0% | Aa/Ai Mean (N = 2) ([1]; 5 min): 3.08 | % Remaining ([1]; 15 min): 99.6% | Aa/Ai Mean (N = 2) ([1]; 15 min): 3.23 | % Remaining ([1]; 30 min): 90.8% | Aa/Ai Mean (N = 2) ([1]; 30 min): 2.95 | % Remaining ([1]; 60 min): 83.6% | Aa/Ai Mean (N = 2) ([1]; 60 min): 2.72 | T1/2 [1]: >187 min | Compound A formed (Aa/Ai) ([1]; 5 min): 0.66 | Compound A formed (Aa/Ai) ([1]; 15 min): 0.58 | Compound A formed (Aa/Ai) ([1]; 30 min): 0.52 | Compound A formed (Aa/Ai) ([1]; 60 min): 0.42 | EC50 (% RBC lysis) [3]: outside the concentration range tested | % RBC lysis (hemolytic potential) [3]: no detectable hemolysis

Reference: patent US20250108038A1 (priority 2023, published 2025)
